Laboratory results as given in the kinase profiling compilation of Christmann-Franck et al. (2016).

What was measured:
Assay in all cases: KINOMEscan competition binding
CAMK2B (human) = CAMK2B (human) (UniProt Q13554); conditions: compound 10.0 µM
STK11 (human) = STK11 (human) (UniProt Q15831); conditions: compound 10.0 µM
[1] = tested on: RET (human), P07949 [M918T]; conditions: compound 10.0 µM
NEK4 (human) = NEK4 (human) (UniProt P51957); conditions: compound 10.0 µM
[2] = tested on: PIK3CA (human), P42336 [H1047L]; conditions: compound 10.0 µM
[3] = tested on: EGFR (human), P00533 [747-751 del / S ins]; conditions: compound 10.0 µM
MAP3K9 (human) = MAP3K9 (human) (UniProt P80192); conditions: compound 10.0 µM
EPHA7 (human) = EPHA7 (human) (UniProt Q15375); conditions: compound 10.0 µM
RPS6KA2 KD2 (human) = RPS6KA2 KD2 (human) (UniProt Q15349)
EPHA5 (human) = EPHA5 (human) (UniProt P54756); conditions: compound 10.0 µM
CSNK1A1L (human) = CSNK1A1L (human) (UniProt Q8N752); conditions: compound 10.0 µM
PRKCH (human) = PRKCH (human) (UniProt P24723); conditions: compound 10.0 µM
MAP2K5 (human) = MAP2K5 (human) (UniProt Q13163); conditions: compound 10.0 µM
CDK14 (human) = CDK14 (human) (UniProt O94921); conditions: compound 10.0 µM
ERN1 (human) = ERN1 (human) (UniProt O75460); conditions: compound 10.0 µM
PHKG1 (human) = PHKG1 (human) (UniProt Q16816); conditions: compound 10.0 µM
MARK1 (human) = MARK1 (human) (UniProt Q9P0L2); conditions: compound 10.0 µM
PAK2 (human) = PAK2 (human) (UniProt Q13177); conditions: compound 10.0 µM
BMP2K (human) = BMP2K (human) (UniProt Q9NSY1); conditions: compound 10.0 µM
MAP2K3 (human) = MAP2K3 (human) (UniProt P46734); conditions: compound 10.0 µM
PAK6 (human) = PAK6 (human) (UniProt Q9NQU5); conditions: compound 10.0 µM
MARK3 (human) = MARK3 (human) (UniProt P27448); conditions: compound 10.0 µM
MAP4K2 (human) = MAP4K2 (human) (UniProt Q12851); conditions: compound 10.0 µM
MAPK12 (human) = MAPK12 (human) (UniProt P53778); conditions: compound 10.0 µM
MYLK (human) = MYLK (human) (UniProt Q15746); conditions: compound 10.0 µM
MATK (human) = MATK (human) (UniProt P42679); conditions: compound 10.0 µM
[4] = molecular target: JAK1 JH1 catalytic (human) (UniProt P23458); conditions: compound 10.0 µM
DCLK3 (human) = DCLK3 (human) (UniProt Q9C098); conditions: compound 10.0 µM
FGFR4 (human) = FGFR4 (human) (UniProt P22455); conditions: compound 10.0 µM
ALK (human) = ALK (human) (UniProt Q9UM73); conditions: compound 10.0 µM
CLK3 (human) = CLK3 (human) (UniProt P49761); conditions: compound 10.0 µM
MKNK2 (human) = MKNK2 (human) (UniProt Q9HBH9)
PRKACB (human) = PRKACB (human) (UniProt P22694); conditions: compound 10.0 µM
EPHA2 (human) = EPHA2 (human) (UniProt P29317); conditions: compound 10.0 µM
RPS6KA6 KD1 (human) = RPS6KA6 KD1 (human) (UniProt Q9UK32); conditions: compound 10.0 µM
BRSK2 (human) = BRSK2 (human) (UniProt Q8IWQ3); conditions: compound 10.0 µM
MAP2K1 (human) = MAP2K1 (human) (UniProt Q02750); conditions: compound 10.0 µM
DAPK1 (human) = DAPK1 (human) (UniProt P53355); conditions: compound 10.0 µM
FES (human) = FES (human) (UniProt P07332); conditions: compound 10.0 µM
MUSK (human) = MUSK (human) (UniProt O15146); conditions: compound 10.0 µM

RPS6KA2 KD2 (human), sequence (Q15349 whole entry, looked up): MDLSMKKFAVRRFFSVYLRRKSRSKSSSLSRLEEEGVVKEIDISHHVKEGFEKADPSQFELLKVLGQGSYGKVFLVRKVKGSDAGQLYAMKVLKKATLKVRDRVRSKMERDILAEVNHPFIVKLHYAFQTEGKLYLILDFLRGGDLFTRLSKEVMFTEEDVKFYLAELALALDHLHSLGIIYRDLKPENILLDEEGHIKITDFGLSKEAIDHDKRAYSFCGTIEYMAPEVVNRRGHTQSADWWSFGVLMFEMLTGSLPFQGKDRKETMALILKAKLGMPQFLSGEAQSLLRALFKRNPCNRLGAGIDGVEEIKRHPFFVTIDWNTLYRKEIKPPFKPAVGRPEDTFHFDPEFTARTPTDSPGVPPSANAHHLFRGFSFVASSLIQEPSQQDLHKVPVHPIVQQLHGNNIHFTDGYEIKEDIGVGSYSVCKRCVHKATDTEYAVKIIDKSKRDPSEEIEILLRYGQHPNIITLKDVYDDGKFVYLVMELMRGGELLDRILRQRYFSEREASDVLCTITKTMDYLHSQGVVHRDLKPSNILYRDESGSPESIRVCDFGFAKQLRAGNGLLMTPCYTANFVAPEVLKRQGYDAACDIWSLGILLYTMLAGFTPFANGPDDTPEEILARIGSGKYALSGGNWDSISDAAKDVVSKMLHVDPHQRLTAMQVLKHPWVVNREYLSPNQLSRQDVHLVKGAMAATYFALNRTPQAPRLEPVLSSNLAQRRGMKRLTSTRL
MKNK2 (human), sequence (Q9HBH9 whole entry, looked up): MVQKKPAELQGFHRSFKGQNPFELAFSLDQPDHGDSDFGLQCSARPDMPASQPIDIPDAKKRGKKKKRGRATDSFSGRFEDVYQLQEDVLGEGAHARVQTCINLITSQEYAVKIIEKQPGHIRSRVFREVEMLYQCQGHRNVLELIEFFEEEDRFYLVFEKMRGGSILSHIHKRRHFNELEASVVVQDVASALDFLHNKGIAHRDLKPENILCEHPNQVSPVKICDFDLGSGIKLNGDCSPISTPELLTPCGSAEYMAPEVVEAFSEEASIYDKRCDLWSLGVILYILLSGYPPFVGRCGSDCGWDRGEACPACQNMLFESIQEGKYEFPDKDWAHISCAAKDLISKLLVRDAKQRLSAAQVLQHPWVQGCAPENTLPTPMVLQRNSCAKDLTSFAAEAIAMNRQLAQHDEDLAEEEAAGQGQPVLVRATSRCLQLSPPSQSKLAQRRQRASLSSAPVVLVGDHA
MAP2K1 (human), sequence (Q02750 whole entry, looked up): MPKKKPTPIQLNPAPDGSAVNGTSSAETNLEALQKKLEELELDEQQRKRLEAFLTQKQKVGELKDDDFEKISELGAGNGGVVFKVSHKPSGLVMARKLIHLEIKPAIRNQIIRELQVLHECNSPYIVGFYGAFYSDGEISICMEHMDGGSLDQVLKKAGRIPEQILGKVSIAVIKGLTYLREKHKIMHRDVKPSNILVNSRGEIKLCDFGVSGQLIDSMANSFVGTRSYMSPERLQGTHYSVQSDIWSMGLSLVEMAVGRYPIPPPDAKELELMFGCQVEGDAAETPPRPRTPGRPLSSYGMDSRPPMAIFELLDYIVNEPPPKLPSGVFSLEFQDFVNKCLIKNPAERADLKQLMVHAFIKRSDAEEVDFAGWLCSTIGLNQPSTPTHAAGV
ERN1 (human), sequence (O75460 whole entry, looked up): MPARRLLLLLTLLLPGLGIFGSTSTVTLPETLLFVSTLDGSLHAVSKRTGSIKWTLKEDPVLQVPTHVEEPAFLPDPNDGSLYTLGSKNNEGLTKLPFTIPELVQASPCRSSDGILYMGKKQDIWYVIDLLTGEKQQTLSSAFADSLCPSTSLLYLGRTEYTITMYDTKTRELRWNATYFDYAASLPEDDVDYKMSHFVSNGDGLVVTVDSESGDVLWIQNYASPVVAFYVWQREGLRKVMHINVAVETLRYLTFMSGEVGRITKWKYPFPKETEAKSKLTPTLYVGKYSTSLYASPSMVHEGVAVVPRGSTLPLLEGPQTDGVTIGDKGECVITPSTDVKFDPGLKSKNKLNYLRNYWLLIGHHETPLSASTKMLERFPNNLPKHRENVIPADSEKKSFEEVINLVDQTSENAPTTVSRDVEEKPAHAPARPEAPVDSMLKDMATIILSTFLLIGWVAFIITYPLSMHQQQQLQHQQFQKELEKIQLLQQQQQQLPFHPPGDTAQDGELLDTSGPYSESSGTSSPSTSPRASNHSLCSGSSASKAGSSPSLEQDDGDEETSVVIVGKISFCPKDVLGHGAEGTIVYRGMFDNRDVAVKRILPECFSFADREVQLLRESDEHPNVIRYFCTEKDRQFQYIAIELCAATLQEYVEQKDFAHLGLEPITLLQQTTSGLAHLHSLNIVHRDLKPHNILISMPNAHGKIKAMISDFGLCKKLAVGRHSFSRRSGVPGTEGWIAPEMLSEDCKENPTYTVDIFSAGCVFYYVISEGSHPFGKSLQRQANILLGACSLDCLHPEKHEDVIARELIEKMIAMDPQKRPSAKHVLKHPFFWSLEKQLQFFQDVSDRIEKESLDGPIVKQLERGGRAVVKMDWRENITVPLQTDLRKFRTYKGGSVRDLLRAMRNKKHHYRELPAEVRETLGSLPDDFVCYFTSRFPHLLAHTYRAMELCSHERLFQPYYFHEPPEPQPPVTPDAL
STK11 (human), sequence (Q15831 whole entry, looked up): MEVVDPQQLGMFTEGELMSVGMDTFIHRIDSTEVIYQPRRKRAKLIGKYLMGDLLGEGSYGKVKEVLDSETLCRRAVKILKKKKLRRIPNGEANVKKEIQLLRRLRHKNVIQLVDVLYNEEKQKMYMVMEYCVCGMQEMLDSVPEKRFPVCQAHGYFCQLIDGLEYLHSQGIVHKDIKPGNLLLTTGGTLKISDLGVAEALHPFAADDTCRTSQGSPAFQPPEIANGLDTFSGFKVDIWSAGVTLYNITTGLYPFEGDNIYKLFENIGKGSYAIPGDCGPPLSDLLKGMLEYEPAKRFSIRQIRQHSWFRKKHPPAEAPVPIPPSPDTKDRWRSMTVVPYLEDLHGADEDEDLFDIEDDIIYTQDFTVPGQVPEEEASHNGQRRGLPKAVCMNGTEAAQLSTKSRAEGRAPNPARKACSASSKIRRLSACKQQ
RET (human), P07949 [M918T], sequence (P07949 whole entry M918T, looked up): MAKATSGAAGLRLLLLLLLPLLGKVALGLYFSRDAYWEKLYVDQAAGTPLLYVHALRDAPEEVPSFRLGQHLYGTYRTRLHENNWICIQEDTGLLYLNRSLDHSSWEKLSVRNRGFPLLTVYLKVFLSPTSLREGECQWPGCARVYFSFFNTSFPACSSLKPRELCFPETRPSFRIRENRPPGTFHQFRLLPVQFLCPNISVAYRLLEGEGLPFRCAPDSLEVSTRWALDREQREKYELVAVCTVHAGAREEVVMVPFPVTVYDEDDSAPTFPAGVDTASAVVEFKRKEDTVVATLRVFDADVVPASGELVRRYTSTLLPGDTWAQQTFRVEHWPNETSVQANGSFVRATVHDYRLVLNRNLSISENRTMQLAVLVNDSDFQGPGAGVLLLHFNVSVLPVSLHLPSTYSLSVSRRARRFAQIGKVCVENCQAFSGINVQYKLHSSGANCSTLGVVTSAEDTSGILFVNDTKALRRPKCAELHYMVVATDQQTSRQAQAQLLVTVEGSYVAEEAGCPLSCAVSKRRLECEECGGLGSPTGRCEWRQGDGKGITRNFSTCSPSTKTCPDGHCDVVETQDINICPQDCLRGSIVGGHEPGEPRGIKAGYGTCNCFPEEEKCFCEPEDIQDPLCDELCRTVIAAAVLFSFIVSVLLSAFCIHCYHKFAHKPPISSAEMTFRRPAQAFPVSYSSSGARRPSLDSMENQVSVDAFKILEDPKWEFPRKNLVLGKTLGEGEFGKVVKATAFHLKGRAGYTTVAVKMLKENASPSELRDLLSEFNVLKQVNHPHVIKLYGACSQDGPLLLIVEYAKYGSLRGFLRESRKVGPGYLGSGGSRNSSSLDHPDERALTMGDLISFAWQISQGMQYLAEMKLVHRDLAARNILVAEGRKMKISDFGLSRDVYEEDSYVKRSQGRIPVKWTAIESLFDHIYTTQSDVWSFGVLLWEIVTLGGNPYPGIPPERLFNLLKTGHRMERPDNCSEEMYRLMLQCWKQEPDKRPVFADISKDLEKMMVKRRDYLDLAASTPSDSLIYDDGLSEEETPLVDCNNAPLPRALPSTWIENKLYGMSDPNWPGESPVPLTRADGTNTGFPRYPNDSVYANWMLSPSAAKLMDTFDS
PHKG1 (human), sequence (Q16816 whole entry, looked up): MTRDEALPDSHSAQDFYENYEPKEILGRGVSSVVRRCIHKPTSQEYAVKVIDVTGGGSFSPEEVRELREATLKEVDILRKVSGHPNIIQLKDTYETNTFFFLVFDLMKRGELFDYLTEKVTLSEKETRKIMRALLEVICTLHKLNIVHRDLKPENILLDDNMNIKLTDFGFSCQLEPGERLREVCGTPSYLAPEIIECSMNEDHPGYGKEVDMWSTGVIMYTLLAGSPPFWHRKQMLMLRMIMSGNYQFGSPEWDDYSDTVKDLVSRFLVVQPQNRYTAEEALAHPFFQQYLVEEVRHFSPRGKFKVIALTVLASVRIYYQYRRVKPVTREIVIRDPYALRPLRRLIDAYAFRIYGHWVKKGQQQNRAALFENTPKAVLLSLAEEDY
MAP2K3 (human), sequence (P46734 whole entry, looked up): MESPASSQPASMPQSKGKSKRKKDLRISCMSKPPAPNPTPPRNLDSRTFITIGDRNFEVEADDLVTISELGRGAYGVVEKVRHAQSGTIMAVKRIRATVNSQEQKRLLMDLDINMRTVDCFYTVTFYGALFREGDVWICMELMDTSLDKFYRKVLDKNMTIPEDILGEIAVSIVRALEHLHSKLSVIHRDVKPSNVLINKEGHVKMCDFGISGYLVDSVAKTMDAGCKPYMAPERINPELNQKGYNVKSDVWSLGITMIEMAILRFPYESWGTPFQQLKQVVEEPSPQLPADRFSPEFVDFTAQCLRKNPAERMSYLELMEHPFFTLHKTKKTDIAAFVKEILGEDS

COc1cc(C(=O)N2CCC(N3CCN(C)CC3)CC2)ccc1Nc1ncc2c(n1)N(C)c1ccccc1C(=O)N2C
kinase still bound, per cent of control (CAMK2B (human)): 62% | kinase still bound, per cent of control (STK11 (human)): 96% | kinase still bound, per cent of control [1]: 100% | kinase still bound, per cent of control (NEK4 (human)): 95% | kinase still bound, per cent of control [2]: 20% | kinase still bound, per cent of control [3]: 100% | kinase still bound, per cent of control (MAP3K9 (human)): 93% | kinase still bound, per cent of control (EPHA7 (human)): 97% | Kd (RPS6KA2 KD2 (human)): 1000 nM | kinase still bound, per cent of control (RPS6KA2 KD2 (human); compound 10.0 µM): 7.5% | kinase still bound, per cent of control (EPHA5 (human)): 95% | kinase still bound, per cent of control (CSNK1A1L (human)): 100% | kinase still bound, per cent of control (PRKCH (human)): 100% | kinase still bound, per cent of control (MAP2K5 (human)): 85% | residual activity (CDK14 (human)): 81% | kinase still bound, per cent of control (ERN1 (human)): 59% | kinase still bound, per cent of control (PHKG1 (human)): 54% | kinase still bound, per cent of control (MARK1 (human)): 87% | kinase still bound, per cent of control (PAK2 (human)): 65% | kinase still bound, per cent of control (BMP2K (human)): 100% | kinase still bound, per cent of control (MAP2K3 (human)): 75% | kinase still bound, per cent of control (PAK6 (human)): 98% | kinase still bound, per cent of control (MARK3 (human)): 98% | kinase still bound, per cent of control (MAP4K2 (human)): 100% | kinase still bound, per cent of control (MAPK12 (human)): 76% | residual activity (MYLK (human)): 8.7% | kinase still bound, per cent of control (MATK (human)): 100% | kinase still bound, per cent of control [4]: 100% | kinase still bound, per cent of control (DCLK3 (human)): 90% | kinase still bound, per cent of control (FGFR4 (human)): 28% | kinase still bound, per cent of control (ALK (human)): 13% | kinase still bound, per cent of control (CLK3 (human)): 95% | Kd (MKNK2 (human)): 380 nM | kinase still bound, per cent of control (MKNK2 (human); compound 10.0 µM): 1.2% | residual activity (PRKACB (human)): 100% | kinase still bound, per cent of control (EPHA2 (human)): 92% | kinase still bound, per cent of control (RPS6KA6 KD1 (human)): 92% | kinase still bound, per cent of control (BRSK2 (human)): 64% | kinase still bound, per cent of control (MAP2K1 (human)): 100% | kinase still bound, per cent of control (DAPK1 (human)): 73% | kinase still bound, per cent of control (FES (human)): 84% | kinase still bound, per cent of control (MUSK (human)): 99%
